{
  "source": "patent US20240287063A1",
  "about": "“METHIONINE ADENOSYLTRANSFERASE 2A INHIBITOR” (NANJING CHIA TAI TIANQING PHARMACEUTICAL CO., LTD., priority 2021, published 2024)",
  "key": {"MAT2A enzyme": {"target": "T1, MAT2A enzyme (Homo sapiens, UniProt P31153)", "T1 construct": "purchased BPS 71401", "T1 sequence (P31153 whole entry)": "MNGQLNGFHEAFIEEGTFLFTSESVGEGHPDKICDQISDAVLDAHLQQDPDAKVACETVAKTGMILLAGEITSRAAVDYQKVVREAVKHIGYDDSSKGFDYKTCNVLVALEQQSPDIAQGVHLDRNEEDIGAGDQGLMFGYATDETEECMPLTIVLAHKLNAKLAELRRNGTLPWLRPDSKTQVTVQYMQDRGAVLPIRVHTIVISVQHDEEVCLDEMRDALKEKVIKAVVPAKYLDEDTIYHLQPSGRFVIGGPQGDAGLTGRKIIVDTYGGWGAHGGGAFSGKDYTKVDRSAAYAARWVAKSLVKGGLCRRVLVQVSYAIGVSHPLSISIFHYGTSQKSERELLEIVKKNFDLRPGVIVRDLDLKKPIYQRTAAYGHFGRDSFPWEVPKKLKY", "assay": "Enzymatic testing method for MAT2A (Biomol Green, OD620)", "type": "biochemical", "conditions": "score by IC50 for inhibiting MAT2A; read-out: MAT2A inhibition score", "method": "• a) A 5×MAT2A test buffer (250 mM Tris-HCl, pH 8.0; 250 mM KCl; 75 mM MgCl2; 0.025% BSA; 0.05% Brij35; 1.5 mM EDTA) was first prepared and partially diluted to 1× for later use; • b) Preparation and addition of MAT2A enzyme (BPS, 71401): the MAT2A enzyme was prepared into 3.674 ng/L by using the 1×MAT2A test buffer (1.67×, final concentration 2.20 ng/L), a BioTek (MultiFlo FX) automatic liquid separator was used, 15 μL of 1.67×MAT2A enzyme solution was added to compound test wells and negative control wells respectively, and 15 μL of 1×MAT2A test buffer was added to blank control wells; • c) Preparation and addition of a compound: a compound to be tested was diluted with DMSO from 10 mM stock solution to 100 μM, a positive drug AGI-24512 was diluted under the same conditions, and the diluted compound and positive drug were automatically sprayed into each well by using a Tecan compound titrator (D300e) according to preset concentration gradients, where the spray volume was little and negligible. The concentration gradient was initially 1 μM, the dilution was implemented by ½ log, and a total of 8 gradients were set. Centrifugation at 2500 rpm for 30 s and incubation at 25° C. for 30 min were performed; • d) Preparation of ATP: 10 mM ATP (Sigma, A7699) was diluted with 1×MAT2A test buffer to 700 μM for later use; • e) Preparation and addition of a substrate and ATP mixture: 5×MAT2A test buffer, 3 μL/well; 750 μM L-methionine (Adamas, 01100469), 2.5 μL/well; 700 μM ATP, 2.5 μL/well; and double distilled water, 2 μL/well. A total amount of required mixture was prepared according to the number of test wells, and 10 μL of the mixture was added to each well by using the BioTek (MultiFlo FX) automatic liquid separator, followed by centrifugation at 2500 rpm for 30 s and reaction at 25° C. for 150 min; • f) Addition of Biomol Green detection reagent: 50 μL of Biomol Green (Enzo, BML-AK111) was added to each well by using the BioTek (MultiFlo FX) automatic liquid separator, followed by centrifugation at 2500 rpm for 30 s and incubation at 25° C. for 20 minutes; • g) After the reaction, OD620 values were read by using a Perkin Elmer (Envision 2105) multifunctional plate reader.\nA formula for calculating an inhibition rate was as follows: […]\nWherein, • % Inhibition: inhibition rate % • ODsample: OD620 value in a sample well; • ODmin: representing a mean OD620 value of blank control wells without the enzyme or compound to be tested; • ODmax: representing a mean OD620 value of negative control wells with the enzyme and without the compound.\nThen a dose-effect curve log(inhibitor) vs. response-Variable slope was fitted by usingGraphPad Prism 5 software to obtain an IC50 value of compound for MAT2A enzyme inhibition."}, "HCT116 MTAP −/− cells": {"tested_on": "HCT116 MTAP −/− cells", "assay": "Cell testing method: HCT116 MTAP-/- cell proliferation inhibition (CellTiter-Glo, 120 h)", "type": "cell-based", "conditions": "Homo sapiens, HCT-116; score by IC50 for inhibiting HCT116 MTAP−/− cells", "method": "HCT116 MTAP −/− cells (purchased from Horizon Discovery): human colorectal cancer cell lines with MTAP gene deletion were cultured in medium RPMI 1640+10% FBS (Fetal bovine serum). On day 0 of the experiment, the live cell density of the foregoing cells in logarithmic growth phase was adjusted to 5000 cells/ml, the cells were inoculated to a 96-well plate by an amount of 100 μl/well, and a blank group was set in parallel; and the inoculated cell plate was put into a 37° C., 5% CO2 incubator for overnight culture.\nOn day 1 of the experiment, the overnight cultured cell plate was taken out, the supernatant was discarded, 80 μl of serum-free RPMI 1640 medium was added to each well, and place the cells in an incubator for starvation cultivation for 4 h. The compound to be tested was dissolved in DMSO (dimethyl sulfoxide) to prepare a 10 mM compound stock solution. After starvation, the cell plate was taken out, and 80 μl of RPMI 1640+20% FBS medium was added to each well; the cell plate was placed on an automatic liquid dispenser D300e (Tecan), and a dosing program was set as follows: a maximum concentration of the compound to be tested was 30 μM, the compound was diluted with DMSO by a 3 times concentration gradient, there was a total of 10 concentrations, two duplicate wells were set for each concentration, and the DMSO final concentration in each well of the 96-well plate was 0.3%, v/v. The pre-prepared 10 mM stock solution of the compound to be tested was taken out, and the above dosing program was run for dosing. After the dosing was completed, the cell plate was placed in incubator and culture for 120 h.\nOn day 6 of the experiment, the cell plate was taken out, 50 μl of CellTiter-Go® (purchased from Promega) was added to each well, and fluorescence signal was measured on Envision (PerkinElmer) according to operation procedures in the manual.\nA dose-effect curve: log(inhibitor) vs. response-Variable slope was fitted by using GraphPad Prism 5 software to obtain an IC50 value of the compound for inhibiting cell proliferation inhibition. A formula for calculating an inhibition rate was: […]\nWherein, • Signal value of tested compound: mean fluorescence signal of cells group+medium group+compound group; • Signal value of blank group: mean fluorescence signal of medium group; • Signal value of negative control group: mean fluorescence signal of cells group+medium group."}, "[1]": {"tested_on": "HCT116 MTAP−/− subcutaneous xenograft tumors", "assay": "In vivo effect experiment of HCT116 MTAP−/− subcutaneous xenograft tumors in nude mice", "method": "Female Nu/Nu nude mice (6-8 weeks old, Beijing Vital River Laboratory Animal Technology Co., Ltd.) were raised in an SPF animal room at a temperature of 20° C.-25° C., relative humidity of 40%-70%, and light and dark lighting for 12 hours each; and animals can freely drink and eat. The animals were adaptively fed before experiment.\nHCT116 MTAP^−/− cells (Horizon) were cultured in vitro for proliferation, cells in logarithmic growth phase were collected and resuspended in a serum-free RPMI-1640 medium, and the cell concentration was adjusted to 6.0×10^7 cells/mL; and 100 μL of the cell suspension was injected subcutaneously into the right anterior armpit of each nude mouse by using a 1 mL syringe, the status of the animals was observed regularly, and the growth of transplanted tumors was monitored regularly.\nWhen the tumor volume reached 100-300 mm^3, animals with too large or too small tumor volume or uncertain tumor formation were eliminated, and tumor bearing mice with good health and similar tumor volume were selected and randomly grouped, 6 mice in each group; the administration group received daily intragastric administration (AG-270: 50 mg/kg, with a structure shown below; compound to be tested: 1-7.5 mg/kg); and the control group was intragastrically administrated with the same volume of blank solvent. In the administration period, the tumor diameter was measured twice a week, the tumor volume was calculated, the animals were weighed, and their weight was recorded.\nA formula for calculating tumor volume (TV) is: Tv=½×a×b^2, wherein a represents long diameter of the tumor, and b represents short diameter of the tumor.\nExperimental data is calculated and statistically processed by using Microsoft Office Excel 2007 software. Unless otherwise specified, the data were expressed as mean±standard error (Mean SEM), and t-test is used for comparison between two groups.\nGrowth curves of tumor volume in each group are shown in FIG. 1, results of SAM test in tumors of each group are shown in FIG. 2, and the mean tumor volume and SEM in each group are shown in Table 2 below: […]"}},
  "note": "pIC50: −log10 of the molar value.",
  "data": [
    {"smiles": "Cn1cc2cc(-c3cn4ccc(OCC(F)(F)F)nc4c(-c4ccc(OC(F)F)cc4)c3=O)ccc2n1", "note": "[Example 22, 9-[4-(difluoromethoxy)phenyl]-7-(2-methyl-2H-indazol-5-yl)-2-(2,2,2-trifluoroethoxy)-8H-pyrido[1,2-a]pyrimidin-8-one]", "values": [
      {"measurement": "pIC50", "setting": "MAT2A enzyme", "value": "> 7.30"},
      {"measurement": "pIC50", "setting": "HCT116 MTAP −/− cells", "value": "> 6.82"},
      {"measurement": "Tumor volume, mean volume", "setting": "[1]; 7.5 mg/kg daily intragastric, day 1 of administration", "value": 152, "unit": "mm^3"},
      {"measurement": "Tumor volume, mean volume", "setting": "[1]; 7.5 mg/kg daily intragastric, day 4 of administration", "value": 173, "unit": "mm^3"},
      {"measurement": "Tumor volume, mean volume", "setting": "[1]; 7.5 mg/kg daily intragastric, day 6 of administration", "value": 180, "unit": "mm^3"},
      {"measurement": "Tumor volume, mean volume", "setting": "[1]; 7.5 mg/kg daily intragastric, day 8 of administration", "value": 212, "unit": "mm^3"},
      {"measurement": "Tumor volume, mean volume", "setting": "[1]; 7.5 mg/kg daily intragastric, day 11 of administration", "value": 267, "unit": "mm^3"},
      {"measurement": "Tumor volume, mean volume", "setting": "[1]; 7.5 mg/kg daily intragastric, day 13 of administration", "value": 324, "unit": "mm^3"},
      {"measurement": "Tumor volume, mean volume", "setting": "[1]; 7.5 mg/kg daily intragastric, day 15 of administration", "value": 375, "unit": "mm^3"}
    ]},
    {"smiles": "O=c1c(-c2ccc(OC(F)F)cc2)cn2ccc(C3CC3)nc2c1-c1ccc(OC(F)F)cc1", "note": "[Example 23, 2-cyclopropyl-7,9-bis[4-(difluoromethoxy)phenyl]-8H-pyrido[1,2-a]pyrimidin-8-one]", "values": [
      {"measurement": "pIC50", "setting": "MAT2A enzyme", "value": "> 7.30"},
      {"measurement": "pIC50", "setting": "HCT116 MTAP −/− cells", "value": "> 6.82"},
      {"measurement": "Tumor volume, mean volume", "setting": "[1]; 1 mg/kg daily intragastric, day 1 of administration", "value": 152, "unit": "mm^3"},
      {"measurement": "Tumor volume, mean volume", "setting": "[1]; 1 mg/kg daily intragastric, day 4 of administration", "value": 198, "unit": "mm^3"},
      {"measurement": "Tumor volume, mean volume", "setting": "[1]; 1 mg/kg daily intragastric, day 6 of administration", "value": 205, "unit": "mm^3"},
      {"measurement": "Tumor volume, mean volume", "setting": "[1]; 1 mg/kg daily intragastric, day 8 of administration", "value": 238, "unit": "mm^3"},
      {"measurement": "Tumor volume, mean volume", "setting": "[1]; 1 mg/kg daily intragastric, day 11 of administration", "value": 266, "unit": "mm^3"},
      {"measurement": "Tumor volume, mean volume", "setting": "[1]; 1 mg/kg daily intragastric, day 13 of administration", "value": 284, "unit": "mm^3"},
      {"measurement": "Tumor volume, mean volume", "setting": "[1]; 1 mg/kg daily intragastric, day 15 of administration", "value": 312, "unit": "mm^3"},
      {"measurement": "Tumor volume, mean volume", "setting": "[1]; 2.5 mg/kg daily intragastric, day 1 of administration", "value": 153, "unit": "mm^3"},
      {"measurement": "Tumor volume, mean volume", "setting": "[1]; 2.5 mg/kg daily intragastric, day 4 of administration", "value": 190, "unit": "mm^3"},
      {"measurement": "Tumor volume, mean volume", "setting": "[1]; 2.5 mg/kg daily intragastric, day 6 of administration", "value": 196, "unit": "mm^3"},
      {"measurement": "Tumor volume, mean volume", "setting": "[1]; 2.5 mg/kg daily intragastric, day 8 of administration", "value": 193, "unit": "mm^3"},
      {"measurement": "Tumor volume, mean volume", "setting": "[1]; 2.5 mg/kg daily intragastric, day 11 of administration", "value": 208, "unit": "mm^3"},
      {"measurement": "Tumor volume, mean volume", "setting": "[1]; 2.5 mg/kg daily intragastric, day 13 of administration", "value": 190, "unit": "mm^3"},
      {"measurement": "Tumor volume, mean volume", "setting": "[1]; 2.5 mg/kg daily intragastric, day 15 of administration", "value": 191, "unit": "mm^3"}
    ]},
    {"smiles": "Cn1cc2cc(-c3cn4ccc(C5CC5)nc4c(-c4ccc(OC(F)F)cc4)c3=O)ccc2n1", "note": "[Example 25, 2-cyclopropyl-9-[4-(difluoromethoxy)phenyl]-7-(2-methyl-2H-indazol-5-yl)-8H-pyrido[1,2-a]pyrimidin-8-one]", "values": [
      {"measurement": "pIC50", "setting": "MAT2A enzyme", "value": "> 7.30"},
      {"measurement": "pIC50", "setting": "HCT116 MTAP −/− cells", "value": "> 6.82"},
      {"measurement": "Tumor volume, mean volume", "setting": "[1]; 5 mg/kg daily intragastric, day 1 of administration", "value": 152, "unit": "mm^3"},
      {"measurement": "Tumor volume, mean volume", "setting": "[1]; 5 mg/kg daily intragastric, day 4 of administration", "value": 174, "unit": "mm^3"},
      {"measurement": "Tumor volume, mean volume", "setting": "[1]; 5 mg/kg daily intragastric, day 6 of administration", "value": 186, "unit": "mm^3"},
      {"measurement": "Tumor volume, mean volume", "setting": "[1]; 5 mg/kg daily intragastric, day 8 of administration", "value": 219, "unit": "mm^3"},
      {"measurement": "Tumor volume, mean volume", "setting": "[1]; 5 mg/kg daily intragastric, day 11 of administration", "value": 305, "unit": "mm^3"},
      {"measurement": "Tumor volume, mean volume", "setting": "[1]; 5 mg/kg daily intragastric, day 13 of administration", "value": 378, "unit": "mm^3"},
      {"measurement": "Tumor volume, mean volume", "setting": "[1]; 5 mg/kg daily intragastric, day 15 of administration", "value": 417, "unit": "mm^3"}
    ]},
    {"smiles": "Cc1cn2cc(-c3ccc(OC(F)F)cc3)c(=O)c(-c3ccc(OC(F)F)cc3)c2nc1NCC(F)(F)F", "note": "[Example 42, 7,9-bis(4-(difluoromethoxy)phenyl)-3-methyl-2-((2,2,2-trifluoroethyl)amino)-8H-pyrido[1,2-a]pyrimidin-8-one]", "values": [
      {"measurement": "pIC50", "setting": "MAT2A enzyme", "value": "> 7.30"},
      {"measurement": "pIC50", "setting": "HCT116 MTAP −/− cells", "value": "6.40 to 6.82"}
    ]}
  ]
}
